Data from patent US11103489B2, “Drug for preventing or treating inflammatory bowel disease” (NATIONAL UNIVERSITY CORPORATION OKAYAMA UNIVERSITY, priority 2015, dated 2021).
“Also recorded” adds a separate entry of the source.

Legend:
DSS colitis model mice [1] = assay: DSS (2% aqueous solution) colitis model mice, drug efficacy and side effects (1); type: in vivo, C57BL/6 mice
Method: (§1) 1. Six-week old (body weight: 20 g) male C57BL/6 mice were purchased and acclimated for 5 to 7 days.
(§2) 2. An average weight was mated between groups having 5 to 6 animals.
(§3) 3. A DSS untreated group (normal) had free access to mineral water filtered through a […] membrane filter. A DSS […] group (vehicle and drug group) had free access to mineral water containing 2% dextran sulfate sodium (DSS) filtered through a […] membrane filter for 6 days and then mineral water filtered through a 0.22 μM membrane filter.
(§4) 4. After initiation of free access to DSS-containing water, a body weight was measured every day and then an evaluated drug was orally administered.
(§5) 6. An orally administered solution was prepared by dissolving the drug in ethanol to a final concentration of 1% and suspending the solution in a 0.5% solution of carboxymethylcellulose (CMC).
(§6) 7. The drug was administered for 11 days, and the next day, a mouse was euthanized followed by blood collection and dissection. A large intestine and a spleen were isolated. A large intestine length was measured and photographs of the large intestine and the spleen were taken. A section of the large intestine was taken and photographed.
8. The collected blood was heparinized to give plasma, which was used for determining a blood triglyceride (TG).

[2] = Measurement of a blood concentration of a drug after oral administration; type: in vivo, ICR mice; details: single oral dose of 3 mg/kg; at any time (0, 1, 3, 6 h); plasma
Method: 1. Six-week old male ICR mice (body weight: 15 to 25 g) were fasted from the evening of the day before the experiment, and a compound solution prepared in [2] below at a volume of 10 mL/kg was orally administered via a stomach tube. At 0, 1, 3, and 6 hours after the administration, the animals were anesthetized with ether, and incised the abdomen to collect blood from a large vein. The blood was transferred into a heparinized tube and centrifuged at 5000 rpm for 5 minutes, to collect 100 μL of plasma. Each treated group had five mice.
2. A dose of the compound was 30, 3, 0.3 mg/kg per an animal. A dosage form of the compound was prepared by dissolving it in ethanol to a final concentration of 1% and suspending the solution in a 0.5% solution of carboxymethylcellulose (CMC).
3. To 100 μL of the plasma were added 100 μL of an ammonium acetate buffer (prepared by adding acetic acid to 5 mM of ammonium acetate and adjusting a pH to 5), and then 1 mL of ethyl acetate. The mixture was vortexed for 30 min, allowed to stand at room temperature for 10 min and centrifuged for 30 sec to remove 800 μL of a supernatant, which was then concentrated by a centrifugal evaporator. The residue was stored at −20° C.
4. […] Then, for 20 μL of the sample, a compound concentration was determined by HPLC or LCMS. […]

[3] = Measurement of a drug concentration in feces; type: in vivo, ICR mice; details: for concentration in feces: oral gavage
Method: 1. For each treated group, four six-week old male ICR mice (body weight: 35 to 40 g) were used.
2. An orally-administered solution was prepared by dissolving it in ethanol to a final concentration of 1% and suspending the solution in a 0.5% solution of carboxymethylcellulose (CMC).
3. Each mouse was housed in a cage and had free access to feed and water.
4. After a body weight was measured at 10 a.m., the animal was gavaged with an evaluated drug via a feeding tube.
5. From the next day, feces in each cage were collected for 3 days.
6. Hundred milligrams of the feces were dried under vacuum at 40° C. and pulverized in a mortar. Then, 1.5 mL of HPLC-grade methanol was added, followed by ultrasonic extraction for 20 min.
7. After the extraction, the mixture was centrifuged at 4° C. and 1,500×g for 20 min.
8. After the centrifugation, 1 mL of the supernatant was filtered through a syringe filter and poured into a 2 mL Eppendorf tube.
9. […] The concentration was converted to a concentration per 100 mg of feces.
10. Since extraction with 1.5 mL of methanol was conducted assuming that 100 mg of the above feces corresponded to 100 μL, a concentration in feces was estimated by multiplying the concentration in methanol determined by LC/MS by […].

[4] = Measurement of a drug concentration in a large intestine; type: in vivo, ICR mice; details: the next day after 3 day administration
Method: 1. The next day of the last medication (day 3 of medication), a mouse used in Example 2 was euthanized with ether and then a large intestine was excised.
2. Faces were removed from the removed large intestine and the inside of the large intestine was washed with PBS. Excess water was removed with Kimwipes.
3. About 200 mg of the above large intestine was precisely placed in a 2 mL Eppendorf tube.
4. To the Eppendorf tube was added 800 μL of HPLC-grade methanol, and the mixture was pulverized by a homogenizer. Methanol was further added such that the total volume of methanol added became five times as much as the volume of the large intestine.
5. The mixture was ultrasonic-extracted for 20 min.
6. After the extraction, the extract was centrifuged at 4° C. and 1,500×g for 20 min.
7. After the centrifugation, about 1 mL of the supernatant was filtered through a syringe filter and poured into a 2 mL Eppendorf tube.
9. Since extraction with […] of methanol was conducted assuming that 200 mg of the above […] corresponded to 200 μL, a concentration in a large intestine was estimated by multiplying the concentration in methanol determined by LC/MS by 5.

DSS colitis model mice [5] = assay: DSS (3% aqueous solution) colitis model mice, drug efficacy and side effects (2); type: in vivo, C57BL/6 mice; details: 3% DSS
Method: as §1, §2
3. A DSS untreated group (normal) had free access to mineral water filtered through a […] membrane filter. […]
as §4, §5, §6

DSS colitis model mice [6] = assay: DSS (2% aqueous solution) colitis model mice, drug efficacy and side effects (3); type: in vivo, C57BL/6 mice; details: 2% DSS
Method: as §1, §2, §3, §4, §5, §6

[7] = cited from earlier work
Raw264.7 cells = assay: Inhibitory effect on LPS-stimulated NO production (Griess assay); details: LPS 100 ng/mL; for LPS-stimulated NO production: 48 hours; for NO-production inhibitory effect in combination with RU486 (GR antagonist): combined with 1 μM of RU486
RXR = details: cited from earlier work
[8] = 2% DSS, oral 100 mg/kg/day, 11 days
[9] = 2% DSS, repeated oral dosing at 10 mg/kg/day, in comparison with bexarotene

**Q.** For `Nc1ccc(O)c(C(=O)O)c1` [5-Aminosalicylic acid, 5-aminosalicylic acid, reference compound], which “improvement in body weight reduction” value (DSS colitis model mice [1]; [8]) is on record?
**A.** did not contribute to improvement in body weight reduction

**Q.** What about the “recovery of a large intestine length” value (DSS colitis model mice [1]; [8]) of the same compound?
**A.** did not contribute

**Q.** With `CCN(c1ccc(C(C)C)c(OCC(C)C)c1)c1ccc(C(=O)O)cn1` [NEt-3IB] as the compound, how does the blood concentration [2] read?
**A.** < 0.1 µM

**Q.** What about the “increase in the concentration in feces by repeated administration” value ([3]; 3 day oral administration) of the same compound?
**A.** increase in the concentration by repeated administration was not found

**Q.** What about the concentration in feces ([3]; Day 1) of the same compound?
**A.** 40 ± 6 µM

**Q.** What about the concentration in feces ([3]; Day 2) of the same compound?
**A.** 33 ± 4 µM

**Q.** And the concentration in feces ([3]; Day 3)?
**A.** 22 ± 1 µM

**Q.** What about the “concentration in a large intestine” value [4] of the same compound?
**A.** 0.0027 ± 0.0003 µM

**Q.** And the “improvement in body weight reduction” value (DSS colitis model mice [1]; [9])?
**A.** prominent improvement in body weight reduction

**Q.** And the “recovery of a large intestine length” value (DSS colitis model mice [1]; [9])?
**A.** recovery of a large intestine length

**Q.** And the “blood triglyceride (TG)” value (DSS colitis model mice [1]; 2% DSS, repeated oral dosing, compared with bexarotene)?
**A.** inhibited increase in blood TG; also recorded: increase in a blood triglyceride by the agent was reduced

**Q.** And the “anti-inflammatory effect on DSS enteritis” value (DSS colitis model mice [1]; repetitive oral administration, 1 mg/kg/day)?
**A.** prominent anti-inflammatory effect

**Q.** What about the “inhibition of body weight reduction” value (DSS colitis model mice [5]; oral 10 mg/kg/day) of the same compound?
**A.** prominent inhibition of body weight reduction

**Q.** And the “recovery of a large intestine length” value (DSS colitis model mice [5]; oral 10 mg/kg/day)?
**A.** recovery of a large intestine length

**Q.** And the weight change (DSS colitis model mice [6]; oral 10 mg/kg/day)?
**A.** inhibited body weight reduction

**Q.** And the “absorption in oral administration” value ([7]; reported)?
**A.** poorly absorbed

**Q.** What about the “enlarged liver or increase in triglyceride” value ([7]; reportedly, in contrast to a conventional RXR full agonist) of the same compound?
**A.** does not cause an enlarged liver or increase in triglyceride

**Q.** What about the “LPS-stimulated NO production” value (Raw264.7 cells) of the same compound?
**A.** inhibited

**Q.** What about the “NO-production inhibitory effect in combination with RU486 (GR antagonist)” value (Raw264.7 cells) of the same compound?
**A.** not inhibited

**Q.** What does the source list for `CCN(c1ccc(C(C)C)c(OCCOC)c1)c1ccc(C(=O)O)cn1` [NEt-3ME]?
**A.** effect relative to NEt-3IB (DSS colitis model mice [6]; at a dose three times as much as NEt-3IB (30 vs 10 mg/kg/day)): comparable to NEt-3IB; weight change (DSS colitis model mice [6]; oral 30 mg/kg/day): inhibited body weight reduction; RXR receptor activation potency relative to NEt-3IB (RXR): less receptor activation potency than NEt-3IB

**Q.** With `C[C@]12C=CC(=O)C=C1CC[C@@H]1[C@@H]2[C@@H](O)C[C@@]2(C)[C@H]1CC[C@]2(O)C(=O)CO` [Prednisolone, prednisolone, reference compound] as the compound, how does the anti-inflammatory effect (DSS colitis model mice [5]; oral administration at 10 mg/kg/day) read?
**A.** did not exhibit anti-inflammatory effect

**Q.** What about the “LPS-stimulated NO production” value (Raw264.7 cells) of the same compound?
**A.** inhibited

**Q.** And the “NO-production inhibitory effect in combination with RU486 (GR antagonist)” value (Raw264.7 cells)?
**A.** inhibited by combination use of RU486

**Q.** For `O=C(O)c1cc(/N=N/c2ccc(S(=O)(=O)Nc3ccccn3)cc2)ccc1O` [SASP, salazosulfapyridine, reference compound], which “weight change, improvement effect compared with a vehicle” value (DSS colitis model mice [6]; oral 200 mg×2/kg/day) is on record?
**A.** did not exhibit improvement effect
